The source of these data is US12109315B2, “Method for treating Blastocystis infection” (Imam Abdulrahman Bin Faisal University, priority 2022, dated 2024).

Read-outs that look alike come from different tables or passages of the source.

In data set [1] the test system is Blastocystis cysts. The data set is described as follows: organism not typed. In kind it is cell-based. To be noted: read-out: Reduction in the percentage of viability of Blastocystis cysts. The text has this:
Suspensions of cultured Blastocystis from symptomatic patients were used for evaluating biological activities of the formulated nanocomposites. Blastocystis were obtained from the El-Badry Lab where ethically approved by the Deanship of Scientific Research and Postgraduate Studies of Imam Abdulrahman Bin Faisal University under the Institutional Review Board (IRB) number (IRB #2021-01-009).
Blastocystis were sub-cultured using fresh Jones' medium enriched with 10% horse serum according to Jones to get rid of stool debris [Jones, W. Ann Trop Med Parasitol., 1946, 40, 130-140; & Zman, V., and Khan, K. Southt Asian J Trop Med Public Health, 1994, 25, 792-793, each of which is incorporated herein by reference in its entirety]. Cultures with vacuolar forms of Blastocystis greater than 10^6 were used for evaluating biological activities of the formulated nanocomposites.
Suspension of cultured Blastocytis cysts, in logarithmic growth phase of 10^6/ml, were inoculated in sets of culture tubes with Jones' culture media. Haemocytometer counting chamber was used to count the number of Blastocystis cysts. The experiments contained 3 groups as follows:
Group 1 (G1): parasite (negative, not treated) control group, containing only cultured cysts of Blastocystis.
Group 2 (G2): drug (positive) control, containing cultured parasites exposed to 500 μg/ml metronidazole as reference anti-Blastocystis therapy.
Group 3 (G3): nanocomposites tested group, containing cultured parasites exposed to the three nanocomposites. G3 was further divided into subgroups to test three nanocomposites (G3A, G3B and […]) at different concentrations (G3i-iv). Parasites were exposed to increasing concentrations of the three nanocomposites of 100 μg/ml (G3i) 200 μg/ml (G3ii), 500 μg/ml (G3iii) and 800 μg/ml (G3iv) (W/V). All tubes were incubated at 37° C. in humidified CO2 for 48 hours.
All tested nanocomposites for each concentration were prepared by diluting stock solution in appropriate amount of PBS. The volume of each of the experiment tubes was brought to 1 ml with Blastocystis 10^6/ml concentration. All experiments were performed in triplicate [El-Sayed, S. H., et. al., Res J Parasitol., 2017, 12,2, 33-44; Méabed, E. M. H., Phytomedicine, 2018, 1, 43, 158-163; & Mokhtar, A. B., et. al., Int J Environ Res Public Health, 2019, 16, 1555, each of which is incorporated herein by reference in its entirety].
The number of Blastocystis cysts from all cultured tubes included in the experiment were counted under the microscope in haemocytometer counting chamber, and cultured Blastocystis cysts were tested for their viability using Trypan blue solution (0.4%). […] The dead Blastocystis cysts were further confirmed by microscopic detection of cell wall disruption and destruction of internal structures. All cultured tubes were examined for percentage of reduction in growth of Blastocystis cysts each hour for 5 hours then after 24 hours. The minimal lethal concentration (MLC) was determined to be the concentration at which no Blastocystis cysts were observed.

The nature of data set [2]: Drug release study (dialysis membrane, PBS, UV-visible spectroscopy). In kind it is physicochemical. To be noted: within 12 h, absence of nanocarrier, PBS pH 5.6, 37° C. The procedure:
Prior to the study, the dialysis membrane (12 KDa, Sigma Aldrich) was activated and then 15 mg of nanoformulation was dispersed in 25 ml of PBS solution (pH 5.6 and 7.4). The release of antioxidants are studied at 37° C. At regular time interval, 5 ml of solution was withdrawn, and release of antioxidants were measured using UV-visible spectroscopy. The withdrawn solution (5 ml) was replaced with equal volume of fresh PBS solution.
Various concentration of aliquots 5, 10, 15, 20, 25 and 30 μg/ml was prepared with makeup volume to 10 ml using release medium PBS solution (pH=5.6 or 7.4) and calibration curve established against blank at maximum absorption wavelength λmax of 428 nm and 307 nm, respectively. […] The release study was repeated in triplicates.

On to `Cc1ncc([N+](=O)[O-])n1CCO` [Metronidazole, metronidazole], for which the inhibition at 500 µg/mL in data set [1] (1 h) is 81.7%; in data set [1] (2 h), 87.7%; in data set [1] (3 h) it was 91.3%; in data set [1] (4 h) it was 96.3%; in data set [1] (5 h) it was 98.7%; in data set [1] (24 h), 99.3%.

On to `Oc1ccc(/C=C/c2cc(O)cc(O)c2)cc1` [resveratrol, Resveratrol], for which, in data set [2], the “maximum release of resveratrol (burst release)” value is given as 43%.
